Assay [1] has as its system HPV 18 positive adenocarcinoma cell (HeLa). The settings on record: cited from earlier work.
Assay [2] relates to HeLa cells. The experiment in a line: Cell morphology (Wright's staining), mitotic catastrophe. Format: cell-based, human. As for the experimental part:
After seeding for 24 h, HeLa cells were treated with various conditions including untreated control, oxaliplatin 5 μM for 2 h, radiation 2 Gy, and oxaliplatin 5 μM for 2 h followed by washing out and radiation 2 Gy. After these treatments, cell were cultured for further 24 h and then collected for Wright's staining and observation under a light microscope.

The subject of assay [3] is HeLa cells. The experiment in a line: Cell cycle distribution by propidium iodide staining and flow cytometry. Type of assay: cell-based, human. As for the experimental part: To eliminate the potential contribution of cell cycle redistribution to the observed radiosensitization, flow cytometric analysis was performed to determine cell cycle progression after treatment of oxaliplatin. After treating cervical cancer cell line HeLa with 5 μM oxaliplatin for 2 h or 24 h after radiaton, drugs was washed out and cells were cultured for further 24 h. HeLa cells were harvested and fixed with 70% ethanol at 4° C. for 1 h. The cells were stained for 30 min with propidium iodide solution (containing propidium iodide, 0.5 mg/mL; RNAse, 0.1 mg/mL) from a CycleTEST PLUS DNA reagent kit (Becton Dickinson, Lincoln Park, N.J.). Analysis of the DNA content was performed using a FACScaliber flow cytometer (Becton Dickinson). The data from 10^4 cells were collected and analyzed using ModFit software (Becton Dickinson).
(A flow cytometer gives signals particle by particle.)

The next assay has as its system gamma-H2AX in HeLa cells. The experiment in a line: Immunofluorescent staining of gamma-H2AX. Type of assay: cell-based, human. The settings on record: oxaliplatin 5 μM 2 h plus 2 Gy, 15 min after radiation. As for the experimental part:
Immunofluorescent staining was used to determine radiation-induced expression of gamma-H2AX which is an indicator of DNA double-strand break. For immunofluorescent staining of gamma-H2AX, HeLa cervical cancer cells that were untreated (control), treated with oxaliplatin 5 μM for 2 h, irradiation of 2 Gy, and oxaliplatin plus irradiation, cells were harvested 15 min after radiation, stained with Rhodamine-conjugated gamma-H2AX antibody (red) and counterstained with DAPI (blue), respectively.

The test system of the next assay is SiHa (HPV 16+) cells. Put plainly: MTT cell viability assay. Type of assay: cell-based, human. The settings on record: 24 hours' exposure, MTT after 2 days in fresh medium. An excerpt: (§1) An ideal radiosensitizer means it enhances radiosensitivity at non-toxic dose, but not due to the combined toxicity of drug and radiation. Thus to determine the toxic effect of different oxaliplatin concentrations on human cervical cancer cells by using 3-(4,5-dimethylthiazol-2-yl)-2, S-diphenyl tetrazolium bromide (MTT) assay. This assay is commonly used to determine cell proliferation, percent of viable cells, and cytotoxicity. MTT is a yellow dye, which can be absorbed by the living cells and be reduced to purplish blue formazan crystals by succinate tetrazolium reductase in mitochondria. Formazan formation can therefore be used to assess and determine the survival rate of cells.
(§2) In preliminary work, the human cervical cancer cell lines HeLa (HPV 18+) and SiHa (HPV 16+) were obtained from American Type Culture Collection (Manassas, Va.). […]
(§3) The human cervical cancer cell lines HeLa (HPV 18+) and SiHa (HPV 16+) were separately cultivated in media containing various doses (0˜10 μM) of oxaliplatin for 24 hours. […] For the assay, the cells were incubated with the MTT (tetrazolium compounds) for 4 h, lysed with DMSO, and the color crystals were solubilized with an ELISA reader at a wavelength of 570 nm.
Background: Formazan colour is commonly taken as a measure of viable cells.

The next assay relates to HeLa (HPV 18+) cells. Put plainly: MTT cell viability assay. Format: cell-based, human. The settings on record: 24 hours' exposure, MTT after 2 days in fresh medium.
Excerpt: as §1, §2, §3

Assay [4] deals with HeLa cells. The experiment in a line: Colony formation assay after oxaliplatin pretreatment and irradiation (radiation survival). Type of assay: cell-based, human. As for the experimental part:
(§4) To evaluate whether oxaliplatin treatment influenced the radiosensitivity of cervical cancer cells, this experiment treated HeLa and SiHa cells with oxaliplatin at various concentrations for 2 h prior to radiation survival assays in the invention.
(§5) Based on the above results of cell viability assessment, 0˜10 μM oxaliplatin was used to test for radiation sensitization. HeLa and SiHa were pretreated with various doses (0, 1.25, 5, and 10 μM) of oxaliplatin for 2 h, and the oxaliplatin was washed out before radiation delivery. Irradiation was performed with 6 MeV of electron beam by a linear accelerator (Clinac® 1800, Varian Associates, Inc.) with various doses (0.5, 1, 2 and 3 Gy) at a dose rate of 2.4 Gy/min in a single fraction. Full electron equilibrium was ensured for each fraction by a parallel plate PR-60C ionization chamber (CAPINTEL, Inc., Ramsey, N.J.). Following radiation, a colony formation assay was performed. The ionizing radition of the present invention used include, but not limited to, electron beam radition, photon, electron, gamma, alpha, beta, neutron, and proton radiation. Among them, electron beam radition is preferred.
(§6) Viable tumor cells (10^3) were plated onto culture dishes (35 mm^2) and allowed to grow in McCoy's 5A medium containing 20% heat-inactivated FCS and 0.24% agarose at 37° C. in a humidified 5% CO2 incubator. After 10 to 14 days, the resultant colonies were stained with 0.4% crystal violet and the colonies containing at least 50 cells were determined. The surviving fraction was calculated as the mean colonies/(cells inoculated×plating efficiency). The control plating efficiency for HeLa and SiHa cells was 40-60%. Survival curves were fitted by a linear-quadratic model. The sensitizer enhancement ratio (SER) was calculated as the radiation dose needed for radiation alone divided by the dose needed for oxaliplatin plus radiation to yield a surviving fraction of 37% (Do in radiobiology).
(§7) Statistical analysis was performed by analysis of variance when comparing the colony formation between different treatment conditions. All data were presented as mean ±standard error of the mean (SEM). SPSS 10.0 software (SPSS Inc, Chicago) was used for analysis of all the data. Statistical significance was assumed where the p value was less than 0.05.

Another assay deals with SiHa cells. Described as above. Format: cell-based, human. As for the experimental part:
as §4, §5, §6, §7

The subject of assay [5] is pATM, pChk1, pChk2, Rad51 in HeLa cells. Put plainly: Western blot of DNA damage repair molecules. Type of assay: cell-based, human. The settings on record: oxaliplatin 5 μM 2 h plus radiation 2 Gy. As for the experimental part: For western blot analysis, HeLa cells were cultured with various treatments: untreated (control), oxaliplatin 5 μM for 2 h (oxaliplatin), radiation 2 Gy (RT alone) and oxaliplatin plus radiation (oxaliplatin+RT) for further 1 h and 6 h. Then, the cellular proteins were extracted, quantified and subjected to gel electrophoresis using 10% (wt/vol) SDS-polyacrylamide gels. Protein samples were then blotted onto polyvinylidene difluoride (PVDF) membranes (Bio-Rad, Hercules, Calif.). The membranes were probed with diluted primary antibodies and detected using horseradish peroxidase-conjugated anti-mouse IgG followed by the use of enhanced chemiluminescence kits (Amersham Pharmacia Biotech). Anti-actin antibody was used as an internal control.

The mark [6] stands for this setting: oxaliplatin 5 μM 2 h, versus untreated.

Consider `N.N.[Cl][Pt][Cl]` [cisplatin], for which, in assay [1], the “effect of combination with radiation” value is recorded as “no effect”.

In the case of `O=C1[O][Pt]2([NH][C@@H]3CCCC[C@H]3[NH]2)[O]C1=O` [oxaliplatin], the “percentages of apoptosis and necrosis” value with HeLa cells [2] (between all groups) was “no marked changes”. Further, the “percentage cells with mitotic catastrophe” value in the assay with HeLa cells [2] (oxaliplatin 5 μM 2 h alone, untreated control 5.6±1.3%) is 27.3±2.2%. The “percentage cells with mitotic catastrophe” value in the assay with HeLa cells [2] (oxaliplatin 5 μM 2 h followed by radiation 2 Gy, radiation alone 16.7±3.2%) came out at 38.5±3.8%. Also, in the assay with HeLa cells [3] (setting [6]), the “proportion in the G0/G1 phase” value is “decreased” and the “proportion of cells in the S phase” value is reported as “remained unchanged”. Moreover, in the assay with HeLa cells [3] (oxaliplatin 5 μM plus irradiation, irradiation alone 26.2%±3.7), the “percentage of cells at G2/M phase” value is on record as 32.3%±3.5. Moreover, the “radiation-induced early expression of gamma-H2AX” value in the assay on gamma-H2AX in HeLa cells is “reduced”. In addition, in the assay with SiHa (HPV 16+) cells, the “highest non-toxic (cell viability>90%) dose” value was 10 µM. In addition, the “highest non-toxic (cell viability>90%) dose” value with HeLa (HPV 18+) cells turned out to be 5 µM. For the same compound, in the assay with HeLa cells [4] (HeLa, oxaliplatin 5 μM for 2 h before radiation), the “sensitizer enhancement ratio (SER) at 37% survival” value amounted to 1.7. The “sensitizer enhancement ratio (SER) at 37% survival” value with HeLa cells [4] (HeLa, oxaliplatin 10 μM for 2 h before radiation (maximal SER)) is recorded as 3.4. The “survival of irradiated tumor cells compared to radiation only” value with HeLa cells [4] (HeLa, pretreatment at 5 and 10 μM, radiation 0.5-3 Gy) is listed as “markedly decreased”. Moreover, the “enhancement of radiation efficiency versus radiation alone” value with HeLa cells [4] (cervical cancer cell lines (HeLa and SiHa)) is reported as 3.1-3.9 times. Also, the “maximal sensitizer enhancement ratio (SER) at 37% survival” value with SiHa cells (oxaliplatin 2 h before radiation) came out at 4.8. Also, the “survival of irradiated tumor cells compared to radiation only” value in the assay with SiHa cells (pretreatment at 5 and 10 μM, radiation 0.5-3 Gy) is listed as “markedly decreased”. In assay [5], the “Chk1 phosphorylation in irradiated cells” value was “no effect”, the “expression of rad51 in irradiated cells” value is given as “no effect”, the “radiation-augmented phosphorylation of Chk2” value is on record as “reduced” and the “radiation-induced expression of phosphorylated ATM” value is listed as “markedly reduced”.

Values taken from patent US20090082437A1, “Use of Oxaliplatin for Enhancing Radiosensitivity in Radiotherapy of Cervical Cancer” (MACKAY MEMORIAL HOSPITAL, priority 2007, published 2009).
